A value given as a limit tells only on which side of the number the result lay.

In the assay the target is human capsaicin receptor (VR1) (Homo sapiens, UniProt Q8NER1). In words: Capsaicin receptor binding assay ([3H]RTX competition, VR1-transfected HEK293 membranes).
Sequence of human capsaicin receptor (VR1) (Q8NER1 whole entry): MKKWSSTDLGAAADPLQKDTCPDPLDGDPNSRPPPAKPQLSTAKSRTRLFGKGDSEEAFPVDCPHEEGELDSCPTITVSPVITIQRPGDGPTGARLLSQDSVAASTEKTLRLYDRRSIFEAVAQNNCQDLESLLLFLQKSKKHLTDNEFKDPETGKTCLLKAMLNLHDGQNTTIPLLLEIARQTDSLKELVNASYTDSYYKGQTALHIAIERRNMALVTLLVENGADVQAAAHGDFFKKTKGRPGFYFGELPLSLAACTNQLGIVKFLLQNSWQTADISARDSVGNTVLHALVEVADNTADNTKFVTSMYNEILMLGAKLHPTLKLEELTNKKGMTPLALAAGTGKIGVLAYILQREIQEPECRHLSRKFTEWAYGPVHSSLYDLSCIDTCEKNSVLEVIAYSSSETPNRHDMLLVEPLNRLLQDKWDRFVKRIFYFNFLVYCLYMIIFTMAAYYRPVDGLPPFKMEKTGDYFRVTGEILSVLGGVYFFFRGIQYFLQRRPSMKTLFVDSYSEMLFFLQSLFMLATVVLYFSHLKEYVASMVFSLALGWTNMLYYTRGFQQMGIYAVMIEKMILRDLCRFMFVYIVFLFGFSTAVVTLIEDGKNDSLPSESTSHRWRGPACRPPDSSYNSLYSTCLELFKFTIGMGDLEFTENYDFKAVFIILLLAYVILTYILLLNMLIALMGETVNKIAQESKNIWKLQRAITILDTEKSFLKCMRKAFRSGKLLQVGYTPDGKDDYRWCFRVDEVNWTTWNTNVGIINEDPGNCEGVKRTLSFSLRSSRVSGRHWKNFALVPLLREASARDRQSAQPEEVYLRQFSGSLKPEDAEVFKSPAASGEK
With `Cc1cccnc1-c1cnc2c(Nc3ccc(C(F)(F)F)cc3)nc(CN3C[C@@H](C)O[C@@H](C)C3)nc2c1` [Compound 603, [2-(2,6-Dimethyl-morpholin-4-ylmethyl)-7-(3-methyl-pyridin-2-yl)-pyrido[3,2-d]pyrimidin-4-yl]-(4-trifluoromethyl-phenyl)-amine (cis)], the Ki (commonly the dissociation constant of the complex between target and ligand, obtained from inhibition or displacement) is less than 1000 nM.

The compound `C[C@H]1CN(Cc2nc(Nc3ccc(C(F)(F)F)cc3)c3ccc(-c4ncccc4Cl)cc3n2)C[C@H](C)O1` [Compound 604, (S,S)-[7-(3-Chloro-pyridin-2-yl)-2-(2,6-dimethyl-morpholin-4-ylmethyl)-quinazolin-4-yl]-(4-trifluoromethyl-phenyl)-amine] registered a Ki of less than 1000 nM.

Take `C[C@H]1CN(Cc2nc(Nc3ccc(C(C)(C)C)nc3)c3ccc(-c4ncccc4Cl)cc3n2)C[C@H](C)O1` [Compound 605, (S,S)-(6-tert-Butyl-pyridin-3-yl)-[7-(3-chloro-pyridin-2-yl)-2-(2,6-dimethyl-morpholin-4-ylmethyl)-quinazolin-4-yl]-amine]: the Ki is less than 1000 nM. The compound `C[C@@H]1CN(Cc2nc(Nc3ccc(C(F)(F)F)cc3)c3ccc(-c4ncccc4Cl)cc3n2)C[C@@H](C)O1` [Compound 606, (R,R)-[7-(3-Chloro-pyridin-2-yl)-2-(2,6-dimethyl-morpholin-4-ylmethyl)-quinazolin-4-yl]-(4-trifluoromethyl-phenyl)-amine] displayed a Ki of less than 1000 nM. For `C[C@@H]1CN(Cc2nc(Nc3ccc(C(C)(C)C)nc3)c3ccc(-c4ncccc4Cl)cc3n2)C[C@@H](C)O1` [Compound 607, (R,R)-(6-tert-Butyl-pyridin-3-yl)-[7-(3-chloro-pyridin-2-yl)-2-(2,6-dimethyl-morpholin-4-ylmethyl)-quinazolin-4-yl]-amine], the Ki was less than 1000 nM. `C[C@H]1CN(Cc2nc(Nc3ccc(C(F)(F)F)nc3)c3ccc(-c4ncccc4Cl)cc3n2)C[C@H](C)O1` [Compound 608, (S,S)-[7-(3-Chloro-pyridin-2-yl)-2-(2,6-dimethyl-morpholin-4-ylmethyl)-quinazolin-4-yl]-(6-trifluoromethyl-pyridin-3-yl)-amine] registered a Ki of less than 1000 nM. Next, `C[C@H]1CN(Cc2nc(Nc3ccc(C(C)(C)C)nc3)c3ccc(-c4ncccc4C(F)(F)F)cc3n2)C[C@H](C)O1` [Compound 609, (S,S)-(6-tert-Butyl-pyridin-3-yl)-[2-(2,6-dimethyl-morpholin-4-ylmethyl)-7-(3-trifluoromethyl-pyridin-2-yl)-quinazolin-4-yl]-amine]: less than 1000 nM. As to `C[C@@H]1CN(Cc2nc(Nc3ccc(C(F)(F)F)nc3)c3ccc(-c4ncccc4Cl)cc3n2)C[C@@H](C)O1` [Compound 610, (R,R)-[7-(3-Chloro-pyridin-2-yl)-2-(2,6-dimethyl-morpholin-4-ylmethyl)-quinazolin-4-yl]-(6-trifluoromethyl-pyridin-3-yl)-amine], the Ki is less than 1000 nM. `C[C@@H]1CN(Cc2nc(Nc3ccc(C(C)(C)C)nc3)c3ccc(-c4ncccc4C(F)(F)F)cc3n2)C[C@@H](C)O1` [Compound 611, (R,R)-(6-tert-Butyl-pyridin-3-yl)-[2-(2,6-dimethyl-morpholin-4-ylmethyl)-7-(3-trifluoromethyl-pyridin-2-yl)-quinazolin-4-yl]-amine] showed a Ki of less than 1000 nM. For `C[C@@H]1CN(Cc2nc(Nc3ccc(C(F)(F)F)cc3)c3cnc(-c4ccccc4C(F)(F)F)cc3n2)C[C@H](C)O1` [Compound 612, [2-(2,6-Dimethyl-morpholin-4-ylmethyl)-7-(2-trifluoromethyl-phenyl)-pyrido[4,3-d]pyrimidin-4-yl]-(4-trifluoromethyl-phenyl)-amine (cis)], the Ki was less than 1000 nM. `CC(C)c1ccc(Nc2nc(CN3C[C@@H](C)O[C@@H](C)C3)nc3cc(-c4ncccc4C(F)(F)F)cnc23)cc1` [Compound 613, [2-(2,6-Dimethyl-morpholin-4-ylmethyl)-7-(3-trifluoromethyl-pyridin-2-yl)-pyrido[3,2-d]pyrimidin-4-yl]-(4-isopropyl-phenyl)-amine (cis)] displayed a Ki of less than 1000 nM. On to `C[C@@H]1CN(Cc2nc(Nc3ccc(C(C)(C)C)cc3)c3cnc(-c4ccccc4C(F)(F)F)cc3n2)C[C@H](C)O1` [Compound 614, (4-tert-Butyl-phenyl)-[2-(2,6-dimethyl-morpholin-4-ylmethyl)-7-(2-trifluoromethyl-phenyl)-pyrido[4,3-d]pyrimidin-4-yl]-amine (cis)], for which the Ki is less than 1000 nM. With `C[C@@H]1CN(Cc2nc(Nc3ccc(C(F)(F)F)cc3)c3ncc(-c4ncccc4Cl)cc3n2)C[C@H](C)O1` [Compound 615, [7-(3-Chloro-pyridin-2-yl)-2-(2,6-dimethyl-morpholin-4-ylmethyl)-pyrido[3,2-d]pyrimidin-4-yl]-(4-trifluoromethyl-phenyl)-amine (cis)], the Ki is less than 1000 nM. In turn, `C[C@@H]1CN(Cc2nc(Nc3ccc(C(F)(F)F)nc3)c3ncc(-c4ncccc4Cl)cc3n2)C[C@H](C)O1` [Compound 616, [7-(3-Chloro-pyridin-2-yl)-2-(2,6-dimethyl-morpholin-4-ylmethyl)-pyrido[3,2-d]pyrimidin-4-yl]-(6-trifluoromethyl-pyridin-3-yl)-amine (cis)] came in with a Ki of less than 1000 nM. The compound `C[C@@H]1CN(Cc2nc(Nc3ccc(S(=O)(=O)C(F)(F)F)cc3)c3ncc(-c4ncccc4Cl)cc3n2)C[C@H](C)O1` [Compound 617, [7-(3-Chloro-pyridin-2-yl)-2-(2,6-dimethyl-morpholin-4-ylmethyl)-pyrido[3,2-d]pyrimidin-4-yl]-(4-trifluoromethanesulfonyl-phenyl)-amine (cis)] gave a Ki of less than 1000 nM. In the case of `Cc1cccnc1-c1ccc2c(Nc3ccc(C(F)(F)F)cc3)nc(CN3C[C@@H](C)O[C@@H](C)C3)nc2c1` [Compound 618, [2-(2,6-Dimethyl-morpholin-4-ylmethyl)-7-(3-methyl-pyridin-2-yl)-quinazolin-4-yl]-(4-trifluoromethyl-phenyl)-amine (cis)], the Ki is less than 1000 nM. The value for `C[C@@H]1CN(Cc2nc(Nc3ccc(C(F)(F)F)cc3)c3ccc(-c4ccccn4)cc3n2)C[C@H](C)O1` [Compound 619, [2-(2,6-Dimethyl-morpholin-4-ylmethyl)-7-pyridin-2-yl-quinazolin-4-yl]-(4-trifluoromethyl-phenyl)-amine (cis)] was less than 1000 nM. `C[C@@H]1CN(Cc2nc(Nc3ccc(C(F)(F)F)cc3)c3ccc(-c4ccccc4C(F)(F)F)cc3n2)C[C@H](C)O1` [Compound 620, [2-(2,6-Dimethyl-morpholin-4-ylmethyl)-7-(2-trifluoromethyl-phenyl)-quinazolin-4-yl]-(4-trifluoromethyl-phenyl)-amine (cis)] showed a Ki of less than 1000 nM. As to `C[C@@H]1CN(Cc2nc(Nc3ccc(C(C)(C)C)cc3)c3ccc(-c4ncccc4Cl)cc3n2)C[C@@H](C)O1` [Compound 621, (R,R)-(4-tert-Butyl-phenyl)-[7-(3-chloro-pyridin-2-yl)-2-(2,6-dimethyl-morpholin-4-ylmethyl)-quinazolin-4-yl]-amine], the Ki was less than 1000 nM.

The compound `C[C@@H]1CN(Cc2nc(Nc3ccc(F)cc3)c3ccc(-c4ncccc4Cl)cc3n2)C[C@@H](C)O1` [Compound 622, (R,R)-(4-Fluoro-phenyl)-[7-(3-chloro-pyridin-2-yl)-2-(2,6-dimethyl-morpholin-4-ylmethyl)-quinazolin-4-yl]-amine] came in with a Ki of less than 1000 nM. Compound `CC(=O)c1ccc(Nc2nc(CN3C[C@@H](C)O[C@H](C)C3)nc3cc(-c4ncccc4Cl)ccc23)cc1` [Compound 623, (R,R)-1-{4-[7-(3-Chloro-pyridin-2-yl)-2-(2,6-dimethyl-morpholin-4-ylmethyl)-quinazolin-4-ylamino]-phenyl}-ethanone] gave a Ki of less than 1000 nM. Regarding `C[C@@H]1CN(Cc2nc(Nc3ccc(Cl)cc3)c3ccc(-c4ncccc4Cl)cc3n2)C[C@@H](C)O1` [Compound 624, (R,R)-(4-Chloro-phenyl)-[7-(3-chloro-pyridin-2-yl)-2-(2,6-dimethyl-morpholin-4-ylmethyl)-quinazolin-4-yl]-amine], the Ki was less than 1000 nM. The value for `CC(C)c1ccc(Nc2nc(CN3C[C@@H](C)O[C@H](C)C3)nc3cc(-c4ncccc4Cl)ccc23)cc1` [Compound 625, (R,R)-(4-Isopropyl-phenyl)-[7-(3-chloro-pyridin-2-yl)-2-(2,6-dimethyl-morpholin-4-ylmethyl)-quinazolin-4-yl]-amine] was less than 1000 nM; that for `CCc1ccc(Nc2nc(CN3C[C@@H](C)O[C@H](C)C3)nc3cc(-c4ncccc4Cl)ccc23)cc1` [Compound 626, (R,R)-(4-Ethyl-phenyl)-[7-(3-chloro-pyridin-2-yl)-2-(2,6-dimethyl-morpholin-4-ylmethyl)-quinazolin-4-yl]-amine] was less than 1000 nM; that for `CCN1CCN(Cc2nc(Nc3ccc(C(F)(F)F)cc3)c3ccc(-c4ncccc4C(F)(F)F)cc3n2)CC1` [Compound 628, [2-(4-Ethyl-piperazin-1-ylmethyl)-7-(3-trifluoromethyl-pyridin-2-yl)-quinazolin-4-yl]-(4-trifluoromethyl-phenyl)-amine] was less than 1000 nM. `CC(C)Oc1ccc(Nc2nc(CN3C[C@@H](C)O[C@H](C)C3)nc3cc(-c4ncccc4Cl)ccc23)cn1` [Compound 629, (R,R)-[7-(3-Chloro-pyridin-2-yl)-2-(2,6-dimethyl-morpholin-4-ylmethyl)-quinazolin-4-yl]-(6-isopropoxy-pyridin-3-yl)-amine]: the Ki is less than 1000 nM.

Consider `C[C@@H]1CN(Cc2nc(Nc3ccc(C#N)cc3)c3ccc(-c4ncccc4Cl)cc3n2)C[C@@H](C)O1` [Compound 630, (R,R)-4-[7-(3-Chloro-pyridin-2-yl)-2-(2,6-dimethyl-morpholin-4-ylmethyl)-quinazolin-4-ylamino]-benzonitrile], for which the Ki is less than 1000 nM. The value for `CC(C)S(=O)(=O)c1ccc(Nc2nc(CN3C[C@@H](C)O[C@H](C)C3)nc3cc(-c4ncccc4Cl)ccc23)cc1` [Compound 631, (R,R)-[7-(3-Chloro-pyridin-2-yl)-2-(2,6-dimethyl-morpholin-4-ylmethyl)-quinazolin-4-yl]-[4-(propane-2-sulfonyl)-phenyl]-amine] was less than 1000 nM.

The record behind these values is US20040156869A1, “2-substituted quinazolin-4-ylamine analogues” (Neurogen Corporation, priority 2002, published 2004).
